Patent publication US12258328B2, “6-membered heteroaryl-containing aminopyridine compounds as EGFR inhibitors” (YUHAN CORPORATION, priority 2021, dated 2025)
Read-outs that look alike come from different tables or passages of the source.

How the values were obtained:
EGFR del19/C797S = EGFR del19/C797S (Homo sapiens, UniProt P00533, C797S/DEL746-750); assay: Biochemical EGFR kinase assay (Lance Ultra TR-FRET), double mutant del19/C797S
How it was run: (§1)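 Kinase activity is measured by TR-FRET phosphopeptide detection. Compounds span 0.003 μM to 10 μM; the 1 h reaction at room temperature is quenched with EDTA, then labelled antibody (2 nM) is incubated 60 min before reading.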

EGFR L858R/T790M/C797S = EGFR L858R/T790M/C797S (Homo sapiens, UniProt P00533, C797S/L858R/T790M); assay: Biochemical EGFR kinase assay (Lance Ultra TR-FRET), triple mutant L858R/T790M/C797S
EGFR L858R/T790M/C797S, sequence (P00533 25-1210 T790M/C797S/L858R): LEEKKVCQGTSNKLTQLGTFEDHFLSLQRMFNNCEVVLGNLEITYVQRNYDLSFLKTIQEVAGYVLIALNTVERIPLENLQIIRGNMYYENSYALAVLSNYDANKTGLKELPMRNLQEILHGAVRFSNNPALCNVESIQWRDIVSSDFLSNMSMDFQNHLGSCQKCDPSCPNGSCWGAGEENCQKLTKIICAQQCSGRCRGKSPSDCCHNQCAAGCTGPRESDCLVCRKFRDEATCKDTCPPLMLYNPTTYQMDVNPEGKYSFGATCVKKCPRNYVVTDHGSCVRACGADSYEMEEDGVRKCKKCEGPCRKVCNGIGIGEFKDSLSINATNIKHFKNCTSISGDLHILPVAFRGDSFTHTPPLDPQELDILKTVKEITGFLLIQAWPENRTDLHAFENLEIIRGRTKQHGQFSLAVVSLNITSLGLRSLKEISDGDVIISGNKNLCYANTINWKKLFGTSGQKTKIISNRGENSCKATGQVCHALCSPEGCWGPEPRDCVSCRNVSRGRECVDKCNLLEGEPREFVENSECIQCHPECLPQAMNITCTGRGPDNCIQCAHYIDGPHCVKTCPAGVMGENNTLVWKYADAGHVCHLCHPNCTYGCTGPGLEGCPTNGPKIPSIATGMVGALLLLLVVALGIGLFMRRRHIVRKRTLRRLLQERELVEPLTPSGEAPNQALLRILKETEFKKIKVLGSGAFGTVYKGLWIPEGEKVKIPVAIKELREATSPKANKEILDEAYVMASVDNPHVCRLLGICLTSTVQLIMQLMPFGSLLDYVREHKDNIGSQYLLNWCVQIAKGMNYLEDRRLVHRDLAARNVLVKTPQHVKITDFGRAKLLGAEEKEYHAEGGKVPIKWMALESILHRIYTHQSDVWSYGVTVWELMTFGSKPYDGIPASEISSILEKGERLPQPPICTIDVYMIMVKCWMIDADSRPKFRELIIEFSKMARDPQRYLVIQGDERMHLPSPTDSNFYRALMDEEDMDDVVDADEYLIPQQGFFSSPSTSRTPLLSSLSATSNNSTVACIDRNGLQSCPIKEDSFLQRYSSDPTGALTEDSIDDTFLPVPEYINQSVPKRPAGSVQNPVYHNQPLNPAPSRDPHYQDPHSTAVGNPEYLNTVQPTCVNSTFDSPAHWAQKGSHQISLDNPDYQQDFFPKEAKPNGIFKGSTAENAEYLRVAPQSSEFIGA
How it was run: as §1

EGFR del19/T790M/C797S = EGFR del19/T790M/C797S (Homo sapiens, UniProt P00533, C797S/DEL746-750/T790M); assay: Biochemical EGFR kinase assay (Lance Ultra TR-FRET), triple mutant del19/T790M/C797S
EGFR del19/T790M/C797S, sequence (P00533 with tags, fused parts or gaps DEL746-750/T790M/C797S): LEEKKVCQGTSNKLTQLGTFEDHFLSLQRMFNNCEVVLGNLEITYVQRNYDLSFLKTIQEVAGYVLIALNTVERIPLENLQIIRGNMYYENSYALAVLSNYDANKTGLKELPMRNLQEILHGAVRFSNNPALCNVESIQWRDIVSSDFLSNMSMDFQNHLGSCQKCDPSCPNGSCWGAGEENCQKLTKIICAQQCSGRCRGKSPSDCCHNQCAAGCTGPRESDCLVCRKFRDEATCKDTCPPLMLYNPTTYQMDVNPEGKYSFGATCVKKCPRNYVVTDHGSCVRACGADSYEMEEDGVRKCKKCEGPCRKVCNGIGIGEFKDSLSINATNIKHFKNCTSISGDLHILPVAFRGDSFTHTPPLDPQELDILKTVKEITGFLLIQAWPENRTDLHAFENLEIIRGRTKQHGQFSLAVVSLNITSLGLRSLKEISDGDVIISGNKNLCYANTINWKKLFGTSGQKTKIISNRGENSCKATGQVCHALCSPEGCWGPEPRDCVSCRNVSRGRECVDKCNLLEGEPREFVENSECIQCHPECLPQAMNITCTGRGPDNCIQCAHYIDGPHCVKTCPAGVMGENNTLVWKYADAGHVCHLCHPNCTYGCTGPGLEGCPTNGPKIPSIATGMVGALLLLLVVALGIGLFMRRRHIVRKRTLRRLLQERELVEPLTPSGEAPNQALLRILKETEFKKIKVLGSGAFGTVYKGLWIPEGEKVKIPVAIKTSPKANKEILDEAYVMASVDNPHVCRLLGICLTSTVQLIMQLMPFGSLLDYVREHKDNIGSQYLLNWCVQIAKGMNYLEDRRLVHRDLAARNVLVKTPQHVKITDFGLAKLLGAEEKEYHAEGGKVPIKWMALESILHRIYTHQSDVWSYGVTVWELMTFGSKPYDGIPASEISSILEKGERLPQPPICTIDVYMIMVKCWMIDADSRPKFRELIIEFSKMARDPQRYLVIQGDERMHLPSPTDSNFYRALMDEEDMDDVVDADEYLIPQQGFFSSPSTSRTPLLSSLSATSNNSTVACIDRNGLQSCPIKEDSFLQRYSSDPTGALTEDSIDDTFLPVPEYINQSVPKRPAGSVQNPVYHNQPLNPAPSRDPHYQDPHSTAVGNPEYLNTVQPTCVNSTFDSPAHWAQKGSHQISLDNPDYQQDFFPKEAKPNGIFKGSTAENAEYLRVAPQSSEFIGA
How it was run: as §1

EGFR L858R/C797S = EGFR L858R/C797S (Homo sapiens, UniProt P00533, C797S/L858R); assay: Biochemical EGFR kinase assay (Lance Ultra TR-FRET), double mutant L858R/C797S
EGFR L858R/C797S, sequence (P00533 25-1210 C797S/L858R): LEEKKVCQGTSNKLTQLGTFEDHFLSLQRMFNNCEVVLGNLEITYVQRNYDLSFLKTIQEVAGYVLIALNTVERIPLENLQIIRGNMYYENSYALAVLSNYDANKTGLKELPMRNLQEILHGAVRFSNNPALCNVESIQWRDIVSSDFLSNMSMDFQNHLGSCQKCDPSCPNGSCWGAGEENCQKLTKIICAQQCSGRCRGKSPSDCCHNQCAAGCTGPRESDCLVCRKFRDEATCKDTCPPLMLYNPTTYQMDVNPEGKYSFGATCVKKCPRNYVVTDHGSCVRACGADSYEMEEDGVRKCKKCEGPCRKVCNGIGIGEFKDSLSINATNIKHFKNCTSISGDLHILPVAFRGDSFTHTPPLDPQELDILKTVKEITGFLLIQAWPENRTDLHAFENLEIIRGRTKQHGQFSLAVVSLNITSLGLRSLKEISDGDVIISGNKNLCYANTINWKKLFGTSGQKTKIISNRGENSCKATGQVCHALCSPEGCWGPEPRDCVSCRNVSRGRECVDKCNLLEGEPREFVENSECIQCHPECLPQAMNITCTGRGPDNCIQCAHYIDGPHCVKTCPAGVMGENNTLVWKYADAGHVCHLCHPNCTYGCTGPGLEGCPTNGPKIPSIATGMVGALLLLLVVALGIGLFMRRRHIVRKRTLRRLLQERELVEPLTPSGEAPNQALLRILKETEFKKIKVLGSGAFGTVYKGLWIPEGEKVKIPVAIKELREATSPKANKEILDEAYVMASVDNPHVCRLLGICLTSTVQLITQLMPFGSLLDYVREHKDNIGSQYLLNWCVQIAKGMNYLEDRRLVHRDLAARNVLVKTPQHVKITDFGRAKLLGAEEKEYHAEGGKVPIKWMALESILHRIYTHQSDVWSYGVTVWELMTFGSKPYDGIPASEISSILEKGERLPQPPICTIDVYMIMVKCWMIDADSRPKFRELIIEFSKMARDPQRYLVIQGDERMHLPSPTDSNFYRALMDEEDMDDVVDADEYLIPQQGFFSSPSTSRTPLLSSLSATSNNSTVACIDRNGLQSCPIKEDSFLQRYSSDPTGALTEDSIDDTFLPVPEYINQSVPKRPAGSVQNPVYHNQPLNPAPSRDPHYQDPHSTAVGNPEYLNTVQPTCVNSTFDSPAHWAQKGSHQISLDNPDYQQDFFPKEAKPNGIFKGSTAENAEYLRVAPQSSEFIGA
How it was run: as §1

EGFR wildtype = EGFR wildtype (Homo sapiens, UniProt P00533); assay: Biochemical EGFR kinase assay (Lance Ultra TR-FRET), wildtype
How it was run: as §1

[1] = IC50 del19/C797S (nM) 100 μM ATP, 100 μM ATP
[2] = Km ATP, read-out: IC50 del19/C797S (nM) Km ATP
[3] = IC50 L858R/T790M/C797S (nM) 100 μM ATP, 100 μM ATP
[4] = Km ATP, read-out: IC50 L858R/T790M/C797S (nM) Km ATP
[5] = IC50 del19/T790M/C797S (nM) 100 μM ATP, 100 μM ATP
[6] = Km ATP, read-out: IC50 del19/T790M/C797S (nM) Km ATP
[7] = IC50 L858R/C797S (nM) 100 μM ATP, 100 μM ATP
[8] = Km ATP, read-out: IC50 L858R/C797S (nM) Km ATP
[9] = IC50 WT (nM) 100 μM ATP, 100 μM ATP
[10] = Km ATP, read-out: IC50 WT (nM) Km ATP
[11] = IC50 L858R/T790M/C797S, 100 μM ATP
[12] = IC50 del19/T790M/C797S, 100 μM ATP
[13] = ATP at Km, read-out: IC50 del19/C797S, Km ATP
[14] = ATP at Km, read-out: IC50 L858R/T790M/C797S, Km ATP
[15] = ATP at Km, read-out: IC50 del19/T790M/C797S, Km ATP
[16] = ATP at Km, read-out: IC50 L858R/C797S, Km ATP
[17] = ATP at Km, read-out: IC50 WT, Km ATP

EGFR del19/C797S, sequence (P00533 with tags, fused parts or gaps DEL746-750/C797S): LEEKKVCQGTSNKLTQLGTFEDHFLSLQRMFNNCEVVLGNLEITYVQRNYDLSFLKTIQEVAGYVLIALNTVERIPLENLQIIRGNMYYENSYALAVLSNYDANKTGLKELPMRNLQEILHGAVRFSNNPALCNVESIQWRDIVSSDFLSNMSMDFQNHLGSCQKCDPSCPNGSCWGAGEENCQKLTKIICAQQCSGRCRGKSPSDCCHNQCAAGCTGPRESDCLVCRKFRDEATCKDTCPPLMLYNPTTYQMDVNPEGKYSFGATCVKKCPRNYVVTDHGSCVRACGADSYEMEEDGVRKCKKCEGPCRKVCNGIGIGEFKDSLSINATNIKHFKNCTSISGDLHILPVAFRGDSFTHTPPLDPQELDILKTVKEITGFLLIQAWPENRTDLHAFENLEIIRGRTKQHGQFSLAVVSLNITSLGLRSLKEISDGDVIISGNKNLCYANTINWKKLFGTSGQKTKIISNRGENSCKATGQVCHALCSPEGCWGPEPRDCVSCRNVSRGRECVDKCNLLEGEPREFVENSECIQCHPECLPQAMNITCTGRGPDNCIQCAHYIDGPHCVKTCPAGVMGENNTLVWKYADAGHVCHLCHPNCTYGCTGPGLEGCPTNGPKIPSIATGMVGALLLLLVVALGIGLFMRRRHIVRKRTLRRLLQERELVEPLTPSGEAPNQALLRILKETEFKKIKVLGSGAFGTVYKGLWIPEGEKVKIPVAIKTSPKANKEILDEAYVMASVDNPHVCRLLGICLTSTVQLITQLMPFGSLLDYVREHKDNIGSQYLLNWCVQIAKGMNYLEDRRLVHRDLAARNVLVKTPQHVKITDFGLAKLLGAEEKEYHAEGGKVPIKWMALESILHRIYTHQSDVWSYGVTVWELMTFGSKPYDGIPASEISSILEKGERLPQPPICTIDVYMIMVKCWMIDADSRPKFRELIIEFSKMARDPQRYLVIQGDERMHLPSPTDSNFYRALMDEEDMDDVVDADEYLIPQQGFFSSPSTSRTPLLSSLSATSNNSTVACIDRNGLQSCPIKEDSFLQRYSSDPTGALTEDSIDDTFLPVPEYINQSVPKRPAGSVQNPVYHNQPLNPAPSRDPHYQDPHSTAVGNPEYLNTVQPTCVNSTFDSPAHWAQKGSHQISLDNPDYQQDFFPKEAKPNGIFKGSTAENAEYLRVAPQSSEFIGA

| IC50 (EGFR del19/C797S; [1]) [nM] | IC50 (EGFR del19/C797S; [2]) [nM] | IC50 (EGFR L858R/T790M/C797S; [3]) [nM] | IC50 (EGFR L858R/T790M/C797S; [4]) [nM] | IC50 (EGFR del19/T790M/C797S; [5]) [nM] | IC50 (EGFR del19/T790M/C797S; [6]) [nM] | IC50 (EGFR L858R/C797S; [7]) [nM] | IC50 (EGFR L858R/C797S; [8]) [nM] | IC50 (EGFR wildtype; [9]) [nM] | IC50 (EGFR wildtype; [10]) [nM] | IC50 (EGFR del19/C797S; IC50 del19/C797S, 100 μM ATP) [nM] | IC50 (EGFR L858R/T790M/C797S; [11]) [nM] | IC50 (EGFR del19/T790M/C797S; [12]) [nM] | IC50 (EGFR L858R/C797S; IC50 L858R/C797S, 100 μM ATP) [nM] | IC50 (EGFR wildtype; IC50 WT, 100 μM ATP) [nM] | IC50 (EGFR del19/C797S; [13]) [nM] | IC50 (EGFR L858R/T790M/C797S; [14]) [nM] | IC50 (EGFR del19/T790M/C797S; [15]) [nM] | IC50 (EGFR L858R/C797S; [16]) [nM] | IC50 (EGFR wildtype; [17]) [nM] | SMILES |
| --- | --- | --- | --- | --- | --- | --- | --- | --- | --- | --- | --- | --- | --- | --- | --- | --- | --- | --- | --- | --- |
| 0.5 | 0.5 | 0.3 | 0.1 | 0.3 | 0.3 | 4.5 | 0.8 | > 10000 | 3.7 |  |  |  |  |  |  |  |  |  |  | C[C@]1(O)CC[C@@H](Nc2cc(Nc3ccnc(-c4cnn(S(=O)(=O)C5CC5)c4)n3)ncc2-c2ccc(N3CC4(COC4)C3)nn2)CC1 [Example 67, (1s,4s)-4-((5-(6-(2-Oxa-6-azaspiro[3.3]heptan-6-yl)pyridazin-3-yl)-2-((2-(1-(cyclopropylsulfonyl)-1H-pyrazol-4-yl)pyrimidin-4-yl)amino)pyridin-4-yl)amino)-1-methylcyclohexan-1-ol] |
|  |  |  |  |  |  |  |  |  |  | 0.4 | 0.4 | 0.3 | 2.4 | 541 |  |  |  |  |  | CS(=O)(=O)c1ccc(-c2cnc(Nc3ccnc(-c4cnn(S(=O)(=O)C5CC5)c4)n3)cc2N[C@H]2CC[C@@H](CO)CC2)nc1 [Example 158, ((1s,4s)-4-((6′-((2-(1-(Cyclopropylsulfonyl)-1H-pyrazol-4-yl)pyrimidin-4-yl)amino)-5-(methylsulfonyl)-[2,3′-bipyridin]-4′-yl)amino)cyclohexyl)methanol] |
|  |  |  |  |  |  |  |  |  |  |  |  |  |  |  | 2.6 | 1 | 0.7 | 4.7 | 96.5 | CC(C)(O)c1ccc(-c2cnc(Nc3ccnc(-c4cnn(S(=O)(=O)C5CC5)c4)n3)cc2NC2CCN(CC(F)F)CC2)nc1 [Example 178, 2-(6′-((2-(1-(Cyclopropylsulfonyl)-1H-pyrazol-4-yl)pyrimidin-4-yl)amino)-4′-((1-(2,2-difluoroethyl)piperidin-4-yl)amino)-[2,3′-bipyridin]-5-yl)propan-2-ol] |
| 0.5 | 0.2 | 0.3 | 0.1 | 0.4 | 0.3 | 2.2 | 0.3 | 172 | 0.1 |  |  |  |  |  |  |  |  |  |  | COC1CN(c2ccc(-c3cnc(Nc4ccnc(-c5cnn(S(=O)(=O)C6CC6)c5)n4)cc3N[C@H]3CC[C@@H](CN(C)C)CC3)nc2)C1 [Example 93, N^6′-(2-(1-(Cyclopropylsulfonyl)-1H-pyrazol-4-yl)pyrimidin-4-yl)-N^4′-((1s,4s)-4-((dimethylamino)methyl)cyclohexyl)-5-(3-methoxyazetidin-1-yl)-[2,3′-bipyridine]-4′,6′-diamine] |
|  |  |  |  |  |  |  |  |  |  | 14.3 | 1 | 2.9 | 64.9 | > 10000 | 5.6 | 0.5 | 1.9 | 12.2 | 19.3 | O=S(=O)(C1CC1)n1cc(-c2nccc(Nc3cc(N[C@H]4CCC[C@H](CO)C4)c(-c4ccc(C(O)C(F)(F)F)cn4)cn3)n2)cn1 (stereo partly drawn) [Example 228, 1-(6′-((2-(1-(Cyclopropylsulfonyl)-1H-pyrazol-4-yl)pyrimidin-4-yl)amino)-4′-(((1S,3S)-3-(hydroxymethyl)cyclohexyl)amino)-[2,3′-bipyridin]-5-yl)-2,2,2-trifluoroethan-1-ol] |
|  |  |  |  |  |  |  |  |  |  | 0.2 | 0.1 | 0.3 | 0.3 | 94.2 | 0.1 | 0.1 | 0.2 | 0.03 | 0.2 | CN1CCN(C(=O)c2ccc(-c3cnc(Nc4ccnc(-c5cnn(S(=O)(=O)C6CC6)c5)n4)cc3N[C@H]3CC[C@@H](CO)CC3)nc2)CC1 [Example 202, (6′-((2-(1-(Cyclopropylsulfonyl)-1H-pyrazol-4-yl)pyrimidin-4-yl)amino)-4′-(((1s,4s)-4-(hydroxymethyl)cyclohexyl)amino)-[2,3′-bipyridin]-5-yl)(4-methylpiperazin-1-yl)methanone] |
|  |  |  |  |  |  |  |  |  |  | 16.8 | 2 | 3.4 | 296 | > 10000 | 8.9 | 1.7 | 3.9 | 11.7 | 37.4 | O=S(=O)(C1CC1)n1cc(-c2nccc(Nc3cc(N[C@H]4CCC[C@H](CO)C4)c(-c4ccc(CC(F)(F)F)cn4)cn3)n2)cn1 [Example 222, ((1S,3S)-3-((6′-((2-(1-(Cyclopropylsulfonyl)-1H-pyrazol-4-yl)pyrimidin-4-yl)amino)-5-(2,2,2-trifluoroethyl)-[2,3′-bipyridin]-4′-yl)amino)cyclohexyl)methanol] |
|  |  |  |  |  |  |  |  |  |  |  |  |  |  |  | 95.1 | 9.2 | 28.4 | 18.7 | 317 | CC(C)(F)c1ccc(-c2cnc(Nc3ccnc(-c4cnn(S(=O)(=O)C5CC5)c4)n3)cc2N[C@H]2CC[C@@H](F)CC2)nc1 [Example 238, N^6′-(2-(1-(Cyclopropylsulfonyl)-1H-pyrazol-4-yl)pyrimidin-4-yl)-N^4′-((1s,4s)-4-fluorocyclohexyl)-5-(2-fluoropropan-2-yl)-[2,3′-bipyridine]-4′,6′-diamine] |
| 0.6 | 0.4 | 0.5 | 0.3 | 0.7 | 0.9 | 0.5 | 0.2 | 181 | 0.6 |  |  |  |  |  |  |  |  |  |  | CN1CCN(c2ccc(-c3cnc(Nc4ccnc(-c5cnn(S(=O)(=O)C6CC6)c5)n4)cc3N[C@H]3CC[C@@H](C(C)(C)O)CC3)nc2)CC1 [Example 84, 2-((1s,4s)-4-((6′-((2-(1-(Cyclopropylsulfonyl)-1H-pyrazol-4-yl)pyrimidin-4-yl)amino)-5-(4-methylpiperazin-1-yl)-[2,3′-bipyridin]-4′-yl)amino)cyclohexyl)propan-2-ol] |
|  |  |  |  |  |  |  |  |  |  | 45.8 | 3.5 | 2.7 | 52.2 | > 10000 |  |  |  |  |  | CN(C)c1ccnc(-c2cnc(Nc3ccnc(-c4cnn(S(=O)(=O)C5CC5)c4)n3)cc2N[C@H]2CC[C@@](C)(O)CC2)c1 [Example 167, (1s,4s)-4-((6′-((2-(1-(Cyclopropylsulfonyl)-1H-pyrazol-4-yl)pyrimidin-4-yl)amino)-4-(dimethylamino)-[2,3′-bipyridin]-4′-yl)amino)-1-methylcyclohexan-1-ol] |
|  | 4.9 |  | 0.2 |  | 0.1 |  | 1.6 |  | 32 |  |  |  |  |  |  |  |  |  |  | CN1CCC(Oc2ccc(-c3cnc(Nc4ccnc(-c5cnn(CC(F)F)c5)n4)cc3NC3CCC(F)(F)C3)nc2)CC1 (stereo not shown) [Example 138, N^4′-(3,3-Difluorocyclopentyl)-N^6′-(2-(1-(2,2-difluoroethyl)-1H-pyrazol-4-yl)pyrimidin-4-yl)-5-((1-methylpiperidin-4-yl)oxy)-[2,3′-bipyridine]-4′,6′-diamine] |
|  |  |  |  |  |  |  |  |  |  |  |  |  |  |  | 7.9 | 0.9 | 1.8 | 1.6 | 23.2 | CC(C)(O)c1ccc(-c2cnc(Nc3ccnc(-c4cnn(S(=O)(=O)C5CC5)c4)n3)cc2N[C@H]2CC[C@@H](F)CC2)nc1 [Example 173, 2-(6′-((2-(1-(Cyclopropylsulfonyl)-1H-pyrazol-4-yl)pyrimidin-4-yl)amino)-4′-(((1s,4s)-4-fluorocyclohexyl)amino)-[2,3′-bipyridin]-5-yl)propan-2-ol] |
| 2.2 | 1 | 0.9 |  | 8.4 | 1 | 3.5 | 0.7 | > 10000 | 2.8 |  |  |  |  |  |  |  |  |  |  | CC(C)(O)[C@H]1CC[C@@H](Nc2cc(Nc3ccnc(-c4cnn(S(=O)(=O)C5CC5)c4)n3)ncc2-c2ccc(CO)cn2)CC1 [Example 24, 2-((1s,4s)-4-((6′-((2-(1-(Cyclopropylsulfonyl)-1H-pyrazol-4-yl)pyrimidin-4-yl)amino)-5-(hydroxymethyl)-[2,3′-bipyridin]-4′-yl)amino)cyclohexyl)propan-2-ol] |
|  |  |  |  |  |  |  |  |  |  | 2.8 |  |  | 3.6 | > 10000 | 0.6 | 0.4 | 0.9 |  | 4.1 | Cc1ccc(-c2cnc(Nc3ccnc(-c4cnn(S(=O)(=O)C5CC5)c4)n3)cc2N[C@H]2CC[C@@](C)(O)CC2)nc1F [Example 179, (1s,4s)-4-((6′-((2-(1-(Cyclopropylsulfonyl)-1H-pyrazol-4-yl)pyrimidin-4-yl)amino)-6-fluoro-5-methyl-[2,3′-bipyridin]-4′-yl)amino)-1-methylcyclohexan-1-ol] |
